Counter-ions that a name gives are not always drawn. Activity calls are given as the source filed them.
Experiments:
[1] = molecular target: T1, Oxysterols receptor LXR-beta (Homo sapiens, UniProt P55055); format: functional, cell-based;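 also: Cell-based luminescence dose-response assay of agonist activity at LXR, run as a confirmatory counterscreen to a daf-12 agonist screen; HEK293 cells with Gal4-LXR fusion and GAL4-driven luciferase reporter; agonist potency from rising luciferase signal of a Gal4-LXR reporter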
T1 sequence (P55055 whole entry): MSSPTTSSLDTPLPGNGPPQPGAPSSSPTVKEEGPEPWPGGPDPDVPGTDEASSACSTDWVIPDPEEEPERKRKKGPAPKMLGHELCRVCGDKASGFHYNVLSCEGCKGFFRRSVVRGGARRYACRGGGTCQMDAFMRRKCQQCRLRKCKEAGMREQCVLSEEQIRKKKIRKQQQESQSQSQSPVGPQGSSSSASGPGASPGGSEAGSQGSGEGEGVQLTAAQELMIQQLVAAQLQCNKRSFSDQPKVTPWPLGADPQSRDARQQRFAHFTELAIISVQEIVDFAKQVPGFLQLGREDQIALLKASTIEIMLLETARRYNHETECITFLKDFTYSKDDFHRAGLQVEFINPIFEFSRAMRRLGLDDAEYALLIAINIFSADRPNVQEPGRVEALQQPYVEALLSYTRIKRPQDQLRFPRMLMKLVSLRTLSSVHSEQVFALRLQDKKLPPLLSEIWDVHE

[2] = cells
[3] = molecular target: T2, Heat shock factor protein 1 (Mus musculus, UniProt P38532); assay: decrease of HSF1-responsive luciferase luminescence – cell-based, NIH3T3, dose retest, confirmation (AID 2382); format: functional;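 also: NIH3T3 fibroblasts with HSF1-driven luciferase reporter stressed by proteasome inhibitor MG132; luminescence from HSF1-driven luciferase expression after 8 hours of MG132 stress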
T2 sequence (P38532 whole entry): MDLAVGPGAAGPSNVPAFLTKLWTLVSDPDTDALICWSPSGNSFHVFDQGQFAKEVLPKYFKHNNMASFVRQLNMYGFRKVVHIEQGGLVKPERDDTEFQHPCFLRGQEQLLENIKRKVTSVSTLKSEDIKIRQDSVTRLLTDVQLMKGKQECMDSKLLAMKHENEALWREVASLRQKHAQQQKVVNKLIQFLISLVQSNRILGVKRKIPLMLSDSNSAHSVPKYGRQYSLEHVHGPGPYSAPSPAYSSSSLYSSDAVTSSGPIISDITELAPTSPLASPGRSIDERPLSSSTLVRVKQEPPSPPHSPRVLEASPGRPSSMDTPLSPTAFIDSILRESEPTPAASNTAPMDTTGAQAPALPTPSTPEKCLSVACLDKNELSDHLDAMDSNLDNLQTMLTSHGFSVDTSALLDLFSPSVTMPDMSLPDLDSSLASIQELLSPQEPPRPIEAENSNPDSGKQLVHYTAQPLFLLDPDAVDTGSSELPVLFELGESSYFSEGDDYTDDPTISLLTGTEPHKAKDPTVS

[4] = NIH3T3 cell viability loss – ATP luminescence, mouse fibroblasts, counter-screen, dose response (AID 2010); format: functional, cell-based;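 also: cells exposed to compound for about 90 hours before reading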
[5] = A Cell Based Secondary Assay To Explore Cytotoxicity of Compounds that Sensitize Mycobacterium Tuberculosis to Beta-Lactam Antibiotics.; format: functional
[6] = molecular target: T3, Streptokinase A (Streptococcus pyogenes serotype M1, UniProt P10520); assay: viability-normalized secreted streptokinase activity reduction – plasminogen activation absorbance, OD405, dose response (AID 1914); format: functional, Streptococcus pyogenes M1 GAS;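 also: secreted streptokinase activity via plasminogen activation per viability signal from cell pellet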
T3 sequence (P10520 whole entry): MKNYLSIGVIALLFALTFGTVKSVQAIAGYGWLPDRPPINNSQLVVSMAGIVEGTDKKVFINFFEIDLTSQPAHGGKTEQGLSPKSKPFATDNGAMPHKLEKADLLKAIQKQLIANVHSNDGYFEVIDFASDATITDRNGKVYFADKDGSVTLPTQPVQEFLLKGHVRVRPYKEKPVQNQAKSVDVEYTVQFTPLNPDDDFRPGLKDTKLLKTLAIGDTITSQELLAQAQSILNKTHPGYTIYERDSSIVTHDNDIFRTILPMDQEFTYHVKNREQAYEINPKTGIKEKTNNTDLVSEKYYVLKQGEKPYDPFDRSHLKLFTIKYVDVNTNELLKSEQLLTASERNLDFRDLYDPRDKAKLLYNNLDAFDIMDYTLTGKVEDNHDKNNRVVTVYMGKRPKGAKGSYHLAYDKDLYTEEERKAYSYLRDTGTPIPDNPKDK

[7] = Trypanosoma cruzi growth suppression in host cells – NIH3T3 host cells, beta-gal luminescence, confirmation (AID 2044); format: functional, cell-based;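 also: intracellular parasites grown in NIH/3T3 mouse fibroblasts as host cells; luminescent beta-galactosidase reporter signal from transgenic T. cruzi replicating inside host cells; inhibitors lower the luminescence signal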
[8] = viability of uninfected HEp-2 cells – cell-based, HTS, cytotoxicity control for RSV inhibitor project, dose response (AID 2410); format: functional; details: human respiratory syncytial virus
[9] = system: Streptococcus sp. 'group A'; assay: Streptococcus pyogenes SK(-)GAS viability under kanamycin – luminescence, BacTiterGlo, confirmation, counter-screen for streptokinase expression inhibitor project, dose response (AID 1900); format: functional, organism-based
[10] = system: Streptococcus; assay: GAS UMAA2166 growth inhibition – luminescence, BacTiterGlo, counter-screen for streptokinase expression inhibitor project, dose response (AID 1915); format: functional, organism-based;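 also: potency for reduction of bacterial viability or growth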
[11] = toxicity to human hepatoma HepG2 cells – cell-based, cherry-picked samples, cytotoxicity control, dose response (AID 1159577); format: functional
[12] = P. falciparum Dd2 growth inhibitors, dose response, SYBR Green, cherry-picked samples (AID 1159567); format: functional, cell-based
[13] = growth inhibition of PfATP4-mutant resistant parasites – NITD609-resistant line, SYBR Green, dry powder, dose response (AID 1159571); format: functional, cell-based;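 also: parasites synchronized at ring stage by sorbitol before testing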
[14] = toxicity to human HepG2 hepatoma cells – cell-based, plate reader, dry powder samples, cytotoxicity control, dose response (AID 1159569); format: functional;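 also: inhibitor potency with signal falling toward the positive control level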
[15] = Dd2 malaria parasite growth inhibition potency – SYBR Green, dry powder samples, dose response (AID 1159566); format: functional, cell-based;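 also: potency for growth inhibition with lower SYBR green DNA signal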
[16] = growth inhibition of yeast DHODH-expressing 3D7 parasites – SYBR Green, dry powder samples, dose response (AID 1159570); format: functional, cell-based;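 also: parasite growth measured after 72 hours of compound exposure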
[17] = molecular target: Voltage-gated inwardly rectifying potassium channel KCNH2 (Homo sapiens, UniProt Q12809); details: Potency;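 also: confirmatory quantitative high-throughput screen measuring inhibition of hERG channel activity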
Voltage-gated inwardly rectifying potassium channel KCNH2, sequence (Q12809 whole entry): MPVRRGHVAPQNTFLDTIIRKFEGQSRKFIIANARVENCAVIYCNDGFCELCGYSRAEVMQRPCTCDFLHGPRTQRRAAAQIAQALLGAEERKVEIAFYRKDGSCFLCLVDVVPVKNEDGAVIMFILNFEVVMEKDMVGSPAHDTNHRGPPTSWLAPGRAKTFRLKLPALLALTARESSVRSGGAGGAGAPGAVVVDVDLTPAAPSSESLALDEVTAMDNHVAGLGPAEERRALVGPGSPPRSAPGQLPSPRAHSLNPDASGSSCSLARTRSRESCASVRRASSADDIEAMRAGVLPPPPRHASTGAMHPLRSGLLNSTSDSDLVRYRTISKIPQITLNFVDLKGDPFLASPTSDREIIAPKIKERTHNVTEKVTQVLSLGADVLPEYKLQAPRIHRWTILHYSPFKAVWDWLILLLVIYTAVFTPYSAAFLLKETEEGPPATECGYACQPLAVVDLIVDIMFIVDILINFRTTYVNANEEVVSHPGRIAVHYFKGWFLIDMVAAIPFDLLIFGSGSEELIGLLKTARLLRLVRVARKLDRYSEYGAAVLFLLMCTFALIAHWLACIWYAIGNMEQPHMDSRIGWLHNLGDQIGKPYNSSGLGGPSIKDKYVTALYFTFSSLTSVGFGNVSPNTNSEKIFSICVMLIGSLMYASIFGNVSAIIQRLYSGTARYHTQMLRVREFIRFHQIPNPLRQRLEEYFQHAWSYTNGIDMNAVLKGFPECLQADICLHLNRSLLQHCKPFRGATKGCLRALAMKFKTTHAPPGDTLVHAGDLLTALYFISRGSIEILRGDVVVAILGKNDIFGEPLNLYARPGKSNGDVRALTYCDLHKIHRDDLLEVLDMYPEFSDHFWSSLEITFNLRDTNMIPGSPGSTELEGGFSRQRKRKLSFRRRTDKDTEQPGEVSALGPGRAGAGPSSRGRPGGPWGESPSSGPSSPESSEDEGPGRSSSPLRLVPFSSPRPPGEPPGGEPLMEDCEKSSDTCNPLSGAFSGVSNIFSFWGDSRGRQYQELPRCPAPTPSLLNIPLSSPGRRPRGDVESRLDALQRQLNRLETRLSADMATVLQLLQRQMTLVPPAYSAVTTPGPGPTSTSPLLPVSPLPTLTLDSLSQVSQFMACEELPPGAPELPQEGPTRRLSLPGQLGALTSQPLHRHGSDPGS

[18] = molecular target: T4, Nuclear receptor subfamily 0 group B member 1 (Homo sapiens, UniProt P51843); format: functional, cell-based;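 also: HEK293T cells transfected with SF-1 and DAX-1 plus StAR promoter luciferase reporter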
T4 sequence (P51843 whole entry): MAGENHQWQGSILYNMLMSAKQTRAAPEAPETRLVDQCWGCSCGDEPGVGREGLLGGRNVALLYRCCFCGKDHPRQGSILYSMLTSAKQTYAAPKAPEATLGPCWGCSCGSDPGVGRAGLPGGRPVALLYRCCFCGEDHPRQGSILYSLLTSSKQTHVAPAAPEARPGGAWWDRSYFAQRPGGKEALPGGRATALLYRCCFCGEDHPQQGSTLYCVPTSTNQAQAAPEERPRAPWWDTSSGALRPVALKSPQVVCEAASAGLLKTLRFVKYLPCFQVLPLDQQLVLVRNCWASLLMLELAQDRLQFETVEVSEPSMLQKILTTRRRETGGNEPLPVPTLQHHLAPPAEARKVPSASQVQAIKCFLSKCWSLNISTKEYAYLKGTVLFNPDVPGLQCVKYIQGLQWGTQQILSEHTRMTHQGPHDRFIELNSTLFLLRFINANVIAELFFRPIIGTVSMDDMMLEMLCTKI

[19] = cells; format: functional, cell-based
[20] = molecular target: 5-hydroxytryptamine receptor 2A (Mus musculus, UniProt P35363); format: functional, cell-based;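 also: CHO-K1 cells with tagged receptor and beta-arrestin; agonist potency measured as compound-induced activation of the receptor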
5-hydroxytryptamine receptor 2A, sequence (P35363 whole entry): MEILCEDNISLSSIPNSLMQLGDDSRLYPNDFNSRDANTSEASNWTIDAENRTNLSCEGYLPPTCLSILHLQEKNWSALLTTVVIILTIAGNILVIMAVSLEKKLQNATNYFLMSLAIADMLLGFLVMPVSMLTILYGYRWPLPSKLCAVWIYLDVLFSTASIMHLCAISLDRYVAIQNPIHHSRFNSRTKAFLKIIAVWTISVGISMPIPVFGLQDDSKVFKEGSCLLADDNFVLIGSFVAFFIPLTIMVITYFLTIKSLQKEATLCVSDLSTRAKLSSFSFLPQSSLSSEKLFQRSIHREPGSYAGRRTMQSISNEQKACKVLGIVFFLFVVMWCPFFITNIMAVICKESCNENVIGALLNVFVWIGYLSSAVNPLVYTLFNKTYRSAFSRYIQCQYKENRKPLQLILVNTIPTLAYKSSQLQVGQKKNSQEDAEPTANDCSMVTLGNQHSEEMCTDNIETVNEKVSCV

## O=C(NC1=NCCS1)c1sc2cc(F)ccc2c1Cl
[1]
  EC50: > 67.6 µM (inactive)
[2]
  EC50: > 67.6 µM (inactive)

## Cc1ccc2[nH]c(-c3sc4nc(C)cc(C)c4c3N)nc2c1
[1]
  EC50: > 67.5 µM (inactive)
[3]
  EC50: 21 µM (active)
[2]
  EC50: > 67.5 µM (inactive)

## CCn1c(=O)n(CC)c2cc(N3CCCC3)c(NC(=O)c3cc(Br)ccc3OC)cc21
[4]
  EC50: 12 µM (active)
[5]
  CC50: 37.6 µM (active)
[6]
  EC50: 18.5 µM (active)
[7]
  EC50: 0.99 µM (active)
[8]
  CC50: 16.4 µM (active)
[9]
  EC50: 7.36 µM (active)
[10]
  EC50: 11.2 µM (active)

## CC(=O)n1cc([C@@H]2C=C(C(=O)N3CCN(Cc4ccc5c(c4)OCO5)CC3)O[C@H](OCCCCO)C2)c2ccccc21
[5]
  CC50: > 40 µM (active)

## O=C(c1c(Cl)nc2sccn12)N(C(=O)c1c(Cl)nc2sccn12)c1ccc(Cl)cn1
[1]
  EC50: > 67.5 µM (inactive)
[2]
  EC50: > 67.5 µM (inactive)

## C[C@@H]1CN([C@@H](C)CO)C(=O)c2cc(NC(=O)Nc3ccc(C(F)(F)F)cc3)ccc2O[C@H]1CN(C)CC1CCCCC1
[11]
  AC50: 22 µM (active)
[12]
  AC50: 10.6 µM (active)

## COc1ccccc1NC(=O)N1CCCCN2[C@@H](CO)[C@H](c3ccc(C#CC4CCCC4)cc3)[C@@H]2C1
[13]
  AC50: 0.458 µM (active)
[14]
  AC50: 10.6 µM (active)
[11]
  AC50: 17.4 µM (active)
[15]
  AC50: 0.386 µM (active)
[16]
  AC50: 0.425 µM (active)
[12]
  AC50: 1.98 µM (active)

## COc1cccc(-c2cccc(-c3nc(C(=O)Nc4ccc(-c5ccccc5)cc4)cc4c3[C@@H](CCO)N([S+]([O-])C(C)(C)C)C4)c2)c1 (stereo not given in full)
[11]
  AC50: 15.2 µM (active)
[12]
  AC50: 2.71 µM (active)

## CN1C(=O)CCC1c1cccnc1 (stereo not given)
[17]
  AC50: 3.16 µM (inconclusive)

## CNCC(O)c1ccc(O)c(O)c1 (stereo not given) [RACEPINEPHRINE HYDROCHLORIDE]
[18]
  IC50: > 67.6 µM (inactive)
[19]
  IC50: > 67.6 µM (inactive)
[20]
  EC50: 1.39 µM (active)
[17]
  AC50: 12.6 µM (inconclusive)

Reference: ChEMBL document CHEMBL1201862, “PubChem BioAssay data set” (2004)
